Tested on: HSB-2 cells
Assay: Inhibition of HSB-2 leukemic cell line proliferation (WST-1)
Format: cell-based, human
Details: cytotoxicity on HSB-2 cells, two days incubation, WST-1 read-out
Description: HSB2 cell line, a human acute lymphoblastic leukemia (ATCC; CCL-120.1) cell line, was grown in RPMI-1640 medium (Lonza, Belgium) supplemented with 10% fetal calf serum (Hyclone, US) and antibiotics. Exponential growing phase cells were seed in flat bottom 96-well microplates (TTP, Switzerland) at 50000 cells per well in 220 μl of medium with compounds (in different concentrations) and incubated for two days at 37° C., 5% CO2. After incubation, 100 μl of supernatant were removed and 10 μl of WST-1 (Roche, Switzerland) were added. After 2 hour incubation at 37° C., 5% CO2, optical densities were measured at 450 nm. Proliferation is calculated with respect of control points (no compound and treatment with Triton X100 to have maximum and minimum proliferation data). The IC50 was determined from a graph with at least four points, each derived from the mean of at least 2 experiments. […] The results are shown in Table 1 for a number of compounds.

COc1ccc(OCC(=O)N2CCN(c3nc(N)nc4sc(CCc5ccc(OC)c(OC)c5)nc34)CC2)cc1 [Example 257, 1-(4-(5-amino-2-(3,4-dimethoxyphenethyl)thiazolo[5,4-d]pyrimidin-7-yl)piperazin-1-yl)-2-(4-methoxyphenoxy)ethanone]
IC50 (Homo sapiens, HSB2, 48 h): > 10 µM

Nc1nc(N2CCN(C(=O)COc3ccc(Cl)cc3)CC2)c2nc(CCc3ccc(Br)cc3)sc2n1 [Example 299, 1-(4-(5-amino-2-(4-bromophenethyl)thiazolo[5,4-d]pyrimidin-7-yl)piperazin-1-yl)-2-(4-chlorophenoxy)ethanone]
IC50 (Homo sapiens, HSB2, 48 h): 3.72 µM

Nc1nc(N2CCN(C(=O)COc3ccc(Br)cc3)CC2)c2nc(Cc3ccc(F)cc3)sc2n1 [Example 231, 1-(4-(5-amino-2-(4-fluorobenzyl)thiazolo[5,4-d]pyrimidin-7-yl)piperazin-1-yl)-2-(4-bromophenoxy)ethanone]
IC50 (Homo sapiens, HSB2, 48 h): 2.63 µM

Nc1nc(N2CCN(C(=O)COc3ccc(OC(F)(F)F)cc3)CC2)c2nc(CCc3ccc(F)cc3)sc2n1 [Example 226, 1-(4-(5-amino-2-(4-fluorophenethyl)thiazolo[5,4-d]pyrimidin-7-yl)piperazin-1-yl)-2-(4-(trifluoromethoxy)phenoxy)ethanone]
IC50 (Homo sapiens, HSB2, 48 h): > 10 µM

COc1ccc(OCC(=O)N2CCN(c3nc(N)nc4sc(CCc5ccc(C)cc5)nc34)CC2)cc1 [Example 259, 1-(4-(5-amino-2-(4-methylphenethyl)thiazolo[5,4-d]pyrimidin-7-yl)piperazin-1-yl)-2-(4-methoxyphenoxy)ethanone]
IC50 (Homo sapiens, HSB2, 48 h): 3 µM

COc1ccc(OCC(=O)N2CCN(c3nc(N)nc4sc(CCCCc5ccc(F)cc5)nc34)CC2)cc1 [Example 293, 1-(4-(5-amino-2-(4-(4-fluorophenyl)butyl)thiazolo[5,4-d]pyrimidin-7-yl)piperazin-1-yl)-2-(4-methoxyphenoxy)ethanone]
IC50 (Homo sapiens, HSB2, 48 h): 0.83 µM

Nc1nc(N2CCN(C(=O)COc3ccc(Cl)cc3)CC2)c2nc(-c3ccccc3)sc2n1 [Example 215, 1-(4-(5-amino-2-phenylthiazolo[5,4-d]pyrimidin-7-yl)piperazin-1-yl)-2-(4-chlorophenoxy)ethanone]
IC50 (Homo sapiens, HSB2, 48 h): 0.24 µM

Nc1nc(N2CCN(C(=O)COc3ccc(Br)cc3)CC2)c2cc(-c3ccccc3)sc2n1 [Example 372, 1-(4-(2-amino-6-phenylthieno[2,3-d]pyrimidin-4-yl)piperazin-1-yl)-2-(4-bromophenoxy)ethanone]
IC50 (Homo sapiens, HSB2, 48 h): 9.87 µM

Nc1nc(N2CCN(C(=O)COc3ccc(F)cc3)CC2)c2nc(-c3ccc(F)cc3)sc2n1 [Example 233, 1-(4-(5-amino-2-(4-fluorophenyl)thiazolo[5,4-d]pyrimidin-7-yl)piperazin-1-yl)-2-(4-fluorophenoxy)ethanone]
IC50 (Homo sapiens, HSB2, 48 h): > 10 µM

Nc1nc(N2CCN(C(=O)COc3ccc(Br)cc3)CC2)c2nc(-c3ccc(F)cc3)sc2n1 [Example 235, 1-(4-(5-amino-2-(4-fluorophenyl)thiazolo[5,4-d]pyrimidin-7-yl)piperazin-1-yl)-2-(4-bromophenoxy)ethanone]
IC50: 0.55 µM

Nc1nc(N2CCN(C(=O)COc3ccc(F)cc3)CC2)c2cc(-c3ccccc3)sc2n1 [Example 370, 1-(4-(2-amino-6-phenylthieno[2,3-d]pyrimidin-4-yl)piperazin-1-yl)-2-(4-fluorophenoxy)ethanone]
IC50 (Homo sapiens, HSB2, 48 h): 6.38 µM

Cc1ccc(CCc2nc3c(N4CCN(C(=O)COc5ccc(Cl)cc5)CC4)nc(N)nc3s2)cc1 [Example 260, 1-(4-(5-amino-2-(4-methylphenethyl)thiazolo[5,4-d]pyrimidin-7-yl)piperazin-1-yl)-2-(4-chlorophenoxy)ethanone]
IC50 (Homo sapiens, HSB2, 48 h): 4.49 µM

Nc1nc(N2CCN(C(=O)COc3cccc(Cl)c3)CC2)c2nc(CCc3ccc(F)cc3)sc2n1 [Example 228, 1-(4-(5-amino-2-(4-fluorophenethyl)thiazolo[5,4-d]pyrimidin-7-yl)piperazin-1-yl)-2-(3-chlorophenoxy)ethanone]
IC50 (Homo sapiens, HSB2, 48 h): > 10 µM

COc1ccc(OCC(=O)N2CCN(c3nc(N)nc4sc(CCCc5ccc(F)cc5)nc34)CC2)cc1 [Example 291, 1-(4-(5-amino-2-(3-(4-fluorophenyl)propyl)thiazolo[5,4-d]pyrimidin-7-yl)piperazin-1-yl)-2-(4-methoxyphenoxy)ethanone]
IC50 (Homo sapiens, HSB2, 48 h): > 10 µM

CC(=O)c1ccc(OCC(=O)N2CCN(c3nc(N)nc4sc(CCc5ccc(F)cc5)nc34)CC2)cc1 [Example 227, 2-(4-acetylphenoxy)-1-(4-(5-amino-2-(4-fluorophenethyl)thiazolo[5,4-d]pyrimidin-7-yl)piperazin-1-yl)ethanone]
IC50 (Homo sapiens, HSB2, 48 h): > 10 µM

COC(=O)c1ccc(OCC(=O)N2CCN(c3nc(N)nc4sc(CCc5ccc(F)cc5)nc34)CC2)cc1 [Example 225, methyl 4-(2-(4-(5-amino-2-(4-fluorophenethyl)thiazolo[5,4-d]pyrimidin-7-yl)piperazin-1-yl)-2-oxoethoxy)benzoate]
IC50 (Homo sapiens, HSB2, 48 h): > 10 µM

COc1cccc(CCc2nc3c(N4CCN(C(=O)COc5ccc(Br)cc5)CC4)nc(N)nc3s2)c1 [Example 254, 1-(4-(5-amino-2-(3-methoxyphenethyl)thiazolo[5,4-d]pyrimidin-7-yl)piperazin-1-yl)-2-(4-bromophenoxy)ethanone]
IC50 (Homo sapiens, HSB2, 48 h): > 10 µM

Cc1ccc(CCc2nc3c(N4CCN(C(=O)COc5ccc(Br)cc5)CC4)nc(N)nc3s2)cc1 [Example 258, 1-(4-(5-amino-2-(4-methylphenethyl)thiazolo[5,4-d]pyrimidin-7-yl)piperazin-1-yl)-2-(4-bromophenoxy)ethanone]
IC50 (Homo sapiens, HSB2, 48 h): > 10 µM

O=C(COc1ccc(Cl)cc1)N1CCN(c2ncnc3sc(-c4ccc(F)cc4)nc23)CC1 [Example 301, 1-(4-(2-(4-fluorophenyl)thiazolo[5,4-d]pyrimidin-7-yl)piperazin-1-yl)-2-(4-chlorophenoxy)ethanone]
IC50 (Homo sapiens, HSB2, 48 h): 2.06 µM

COc1ccc(OCC(=O)N2CCN(c3nc(N)nc4sc(-c5ccc(C)cc5)nc34)CC2)cc1 [Example 294, 1-(4-(5-amino-2-p-tolylthiazolo[5,4-d]pyrimidin-7-yl)piperazin-1-yl)-2-(4-methoxyphenoxy)ethanone]
IC50 (Homo sapiens, HSB2, 48 h): 4.16 µM

COc1ccc(OCC(=O)N2CCN(c3nc(N)nc4sc(-c5ccc(F)cc5)nc34)CC2)cc1 [Example 234, 1-(4-(5-amino-2-(4-fluorophenyl)thiazolo[5,4-d]pyrimidin-7-yl)piperazin-1-yl)-2-(4-methoxyphenoxy)ethanone]
IC50 (Homo sapiens, HSB2, 48 h): 0.2 µM

COc1ccc(OCC(=O)N2CCN(c3nc(N)nc4sc(Cc5ccc(F)cc5)nc34)CC2)cc1 [Example 230, 1-(4-(5-amino-2-(4-fluorobenzyl)thiazolo[5,4-d]pyrimidin-7-yl)piperazin-1-yl)-2-(4-methoxyphenoxy)ethanone]
IC50 (Homo sapiens, HSB2, 48 h): 2.21 µM

COc1ccc(OCC(=O)N2CCN(c3nc(N)nc4sc(CCc5ccc(Br)cc5)nc34)CC2)cc1 [Example 298, 1-(4-(5-amino-2-(4-bromophenethyl)thiazolo[5,4-d]pyrimidin-7-yl)piperazin-1-yl)-2-(4-methoxyphenoxy)ethanone]
IC50 (Homo sapiens, HSB2, 48 h): > 10 µM

Nc1nc(N2CCN(C(=O)COc3ccc(Cl)cc3)CC2)c2nc(CCCc3ccc(F)cc3)sc2n1 [Example 290, 1-(4-(5-amino-2-(3-(4-fluorophenyl)propyl)thiazolo[5,4-d]pyrimidin-7-yl)piperazin-1-yl)-2-(4-chlorophenoxy)ethanone]
IC50 (Homo sapiens, HSB2, 48 h): > 10 µM

Nc1nc(N2CCN(C(=O)COc3ccc(O)cc3)CC2)c2nc(CCc3ccc(F)cc3)sc2n1 [Example 224, 1-(4-(5-amino-2-(4-fluorophenethyl)thiazolo[5,4-d]pyrimidin-7-yl)piperazin-1-yl)-2-(4-hydroxyphenoxy)ethanone]
IC50 (Homo sapiens, HSB2, 48 h): 3.94 µM

COc1ccc(CCc2nc3c(N4CCN(C(=O)COc5ccc(Br)cc5)CC4)nc(N)nc3s2)cc1OC [Example 256, 1-(4-(5-amino-2-(3,4-dimethoxyphenethyl)thiazolo[5,4-d]pyrimidin-7-yl)piperazin-1-yl)-2-(4-bromophenoxy)ethanone]
IC50 (Homo sapiens, HSB2, 48 h): > 10 µM

Cc1ccc(-c2nc3c(N4CCN(C(=O)COc5ccc(Cl)cc5)CC4)nc(N)nc3s2)cc1 [Example 295, 1-(4-(5-amino-2-p-tolylthiazolo[5,4-d]pyrimidin-7-yl)piperazin-1-yl)-2-(4-chlorophenoxy)ethanone]
IC50 (Homo sapiens, HSB2, 48 h): 0.23 µM

COc1ccc(OCC(=O)N2CCN(c3nc(N)nc4sc(CCc5cccc(OC)c5)nc34)CC2)cc1 [Example 253, 1-(4-(5-amino-2-(3-methoxyphenethyl)thiazolo[5,4-d]pyrimidin-7-yl)piperazin-1-yl)-2-(4-methoxyphenoxy)ethanone]
IC50 (Homo sapiens, HSB2, 48 h): 4.99 µM

COc1cccc(CCc2nc3c(N4CCN(C(=O)COc5ccc(Cl)cc5)CC4)nc(N)nc3s2)c1 [Example 255, 1-(4-(5-amino-2-(3-methoxyphenethyl)thiazolo[5,4-d]pyrimidin-7-yl)piperazin-1-yl)-2-(4-chlorophenoxy)ethanone]
IC50 (Homo sapiens, HSB2, 48 h): 2.1 µM

Nc1nc(N2CCN(C(=O)COc3ccc(Cl)cc3)CC2)c2nc(CCCCc3ccc(F)cc3)sc2n1 [Example 292, 1-(4-(5-amino-2-(4-(4-fluorophenyl)butyl)thiazolo[5,4-d]pyrimidin-7-yl)piperazin-1-yl)-2-(4-chlorophenoxy)ethanone]
IC50 (Homo sapiens, HSB2, 48 h): 9.79 µM
